Experimental data as given in ChEMBL document CHEMBL3885881, “DrugMatrix”.

Species: Rattus norvegicus
Assay: DrugMatrix - Regimen: Daily Repeat
Format: toxicity, organism-based, Sprague-Dawley
Design: regimen Daily Repeat, gender Male, age 6-8 weeks
Settings: in vivo, po, 100 mg/kg, route oral GAVAGE, dose level Low, vehicle .5 % CMC; for ABSOLUTE BASOPHIL / ABSOLUTE EOSINOPHIL / ABSOLUTE LYMPHOCYTE / ABSOLUTE MONOCYTE / ABSOLUTE SEGMENTED NEUTROPHIL / BASOPHIL / EOSINOPHIL / ERYTHROCYTE COUNT / HEMATOCRIT / HEMOGLOBIN / LEUKOCYTE COUNT / LYMPHOCYTE / MEAN CORPUSCULAR HEMOGLOBIN / MEAN CORPUSCULAR HEMOGLOBIN CONCENTRATION / MEAN CORPUSCULAR VOLUME / MONOCYTE / NEUTROPHIL / NUCLEATED RED BLOOD CELLS / PLATELET COUNT: tissue Blood; for ALANINE AMINOTRANSFERASE / ALBUMIN / ALKALINE PHOSPHATASE / ASPARTATE AMINOTRANSFERASE / BLOOD UREA NITROGEN / CARBON DIOXIDE / CHLORIDE / CHOLESTEROL / CREATINE PHOSPHOKINASE / CREATININE / GLUCOSE / LACTATE DEHYDROGENASE / LIPASE / PHOSPHORUS / POTASSIUM / SODIUM / TOTAL BILIRUBIN / TOTAL PROTEIN / URIC ACID: tissue Plasma

SMILES: CC=Cc1ccc(O)c(OC)c1 [ISOEUGENOL]
- ABSOLUTE BASOPHIL (72 h, time 3 day): 0 CELLS/uL
- ABSOLUTE EOSINOPHIL (72 h, time 3 day): 0 CELLS/uL
- ABSOLUTE LYMPHOCYTE (72 h, time 3 day): 15444.33 CELLS/uL
- ABSOLUTE MONOCYTE (72 h, time 3 day): 342 CELLS/uL
- ABSOLUTE SEGMENTED NEUTROPHIL (72 h, time 3 day): 1847 CELLS/uL
- BASOPHIL (72 h, time 3 day): 0%
- EOSINOPHIL (72 h, time 3 day): 0%
- ERYTHROCYTE COUNT (72 h, time 3 day): 5.62 x10E6/uL
- HEMATOCRIT (72 h, time 3 day): 36.7%
- HEMOGLOBIN (72 h, time 3 day): 13.83 G/DL
- LEUKOCYTE COUNT (72 h, time 3 day): 17.63 x10E3/uL
- LYMPHOCYTE (72 h, time 3 day): 87.33%
- MEAN CORPUSCULAR HEMOGLOBIN (72 h, time 3 day): 24.63 pg
- MEAN CORPUSCULAR HEMOGLOBIN CONCENTRATION (72 h, time 3 day): 37.77 G/DL
- MEAN CORPUSCULAR VOLUME (72 h, time 3 day): 65.23 fL
- MONOCYTE (72 h, time 3 day): 2%
- NEUTROPHIL (72 h, time 3 day): 10.67%
- NUCLEATED RED BLOOD CELLS (72 h, time 3 day): 0 /100WBC
- PLATELET COUNT (72 h, time 3 day): 1262 x10E3/uL
- ALANINE AMINOTRANSFERASE (72 h, time 3 day): 53.33 u/L
- ALBUMIN (72 h, time 3 day): 4.73 G/DL
- ALKALINE PHOSPHATASE (72 h, time 3 day): 338.67 u/L
- ASPARTATE AMINOTRANSFERASE (72 h, time 3 day): 88.33 u/L
- BLOOD UREA NITROGEN (72 h, time 3 day): 17.67 mg/dL
- CARBON DIOXIDE (72 h, time 3 day): 23.67 mmol/L
- CHLORIDE (72 h, time 3 day): 102 MEQ/L
- CHOLESTEROL (72 h, time 3 day): 66.67 mg/dL
- CREATINE PHOSPHOKINASE (72 h, time 3 day): 312.33 u/L
- CREATININE (72 h, time 3 day): 0.17 mg/dL
- GLUCOSE (72 h, time 3 day): 143 mg/dL
- LACTATE DEHYDROGENASE (72 h, time 3 day): 280.33 u/L
- LIPASE (72 h, time 3 day): 9.33 u/L
- PHOSPHORUS (72 h, time 3 day): 11.33 mg/dL
- POTASSIUM (72 h, time 3 day): 6.23 MEQ/L
- SODIUM (72 h, time 3 day): 144.93 MEQ/L
- TOTAL BILIRUBIN (72 h, time 3 day): 0.23 mg/dL
- TOTAL PROTEIN (72 h, time 3 day): 5.83 G/DL
- URIC ACID (72 h, time 3 day): 1.8 mg/dL
- ABSOLUTE BASOPHIL (120 h, time 5 day): 0 CELLS/uL
- ABSOLUTE EOSINOPHIL (120 h, time 5 day): 450 CELLS/uL
- ABSOLUTE LYMPHOCYTE (120 h, time 5 day): 12545.67 CELLS/uL
- ABSOLUTE MONOCYTE (120 h, time 5 day): 392.67 CELLS/uL
- ABSOLUTE SEGMENTED NEUTROPHIL (120 h, time 5 day): 1645 CELLS/uL
- BASOPHIL (120 h, time 5 day): 0%
- EOSINOPHIL (120 h, time 5 day): 3%
- ERYTHROCYTE COUNT (120 h, time 5 day): 5.9 x10E6/uL
- HEMATOCRIT (120 h, time 5 day): 36%
- HEMOGLOBIN (120 h, time 5 day): 13.27 G/DL
- LEUKOCYTE COUNT (120 h, time 5 day): 15.03 x10E3/uL
- LYMPHOCYTE (120 h, time 5 day): 83.33%
- MEAN CORPUSCULAR HEMOGLOBIN (120 h, time 5 day): 22.57 pg
- MEAN CORPUSCULAR HEMOGLOBIN CONCENTRATION (120 h, time 5 day): 36.83 G/DL
- MEAN CORPUSCULAR VOLUME (120 h, time 5 day): 61.17 fL
- MONOCYTE (120 h, time 5 day): 2.67%
- NEUTROPHIL (120 h, time 5 day): 11%
- NUCLEATED RED BLOOD CELLS (120 h, time 5 day): 0 /100WBC
- PLATELET COUNT (120 h, time 5 day): 1402 x10E3/uL
- ALANINE AMINOTRANSFERASE (120 h, time 5 day): 47.67 u/L
- ALBUMIN (120 h, time 5 day): 4.37 G/DL
- ALKALINE PHOSPHATASE (120 h, time 5 day): 345.67 u/L
- ASPARTATE AMINOTRANSFERASE (120 h, time 5 day): 83.33 u/L
- BLOOD UREA NITROGEN (120 h, time 5 day): 18 mg/dL
- CARBON DIOXIDE (120 h, time 5 day): 23.67 mmol/L
- CHLORIDE (120 h, time 5 day): 109.67 MEQ/L
- CHOLESTEROL (120 h, time 5 day): 58 mg/dL
- CREATINE PHOSPHOKINASE (120 h, time 5 day): 251.33 u/L
- CREATININE (120 h, time 5 day): 0.21 mg/dL
- GLUCOSE (120 h, time 5 day): 141 mg/dL
- LACTATE DEHYDROGENASE (120 h, time 5 day): 180.67 u/L
- LIPASE (120 h, time 5 day): 9 u/L
- PHOSPHORUS (120 h, time 5 day): 11.17 mg/dL
- POTASSIUM (120 h, time 5 day): 6.1 MEQ/L
- SODIUM (120 h, time 5 day): 146.53 MEQ/L
- TOTAL BILIRUBIN (120 h, time 5 day): 0.2 mg/dL
- TOTAL PROTEIN (120 h, time 5 day): 6.13 G/DL
- URIC ACID (120 h, time 5 day): 1.57 mg/dL
